Data on two molecules can be found in patent publication US11268068B2, “In vitro model of metastatic cancer” (THE JOHNS HOPKINS UNIVERSITY, priority 2014, dated 2022).

Assay [1] concerns parental and rs-monolayer population of Huh7 cells. Kind of assay: Chemosensitivity assay (cell viability after 3-BrPA). The class given is cell-based, human. Particulars: Huh7 (luc-Huh7) cells, rs-monolayer vs parental monolayer, FIG. 7B. The method, then: Assessment of the chemosensitivity of parental cell population and rs-monolayer population was performed using the antiglycolytic agent, 3-bromopyruvate (3-BrPA). In brief, cells were plated in 96-well plates the day before treatment. Analysis of cell viability following the addition of 3-BrPA was performed as described other cell lines^22.

The subject of assay [2] is human cancer cells in 3D-culture. To be noted: Gomes et al., Oncogene 2015; cited from earlier work.

The structures appear in SMILES notation.

`O=C(O)C(=O)CBr` [3-BrPA, 3-bromopyruvate]: the “IC50 of rs-monolayer cells compared to the parental population” value in assay [1] was “An increase in IC50 of rs-monolayer cells compared to the parental population”; in assay [1] (listed as 3-bromopyruvate) it was “rs-monolayer cells require a higher concentration of drug”.

Take `COc1cccc2c1C(=O)c1c(O)c3c(c(O)c1C2=O)C[C@@](O)(C(=O)CO)C[C@@H]3O[C@H]1C[C@H](N)[C@H](O)[C@H](C)O1` [doxorubicin]: the “Sensitivity of 3D-culture compared with corresponding monolayer culture” value in assay [2] was “more sensitive”.
